Laboratory results taken from PubChem BioAssay (NCI).
Values joined by “and” are separate entries in the source; they are usually repeats but may differ in a detail not shown here. Identical values can stand only once.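 1) Cells in 96-well plates. 2) Compound, 48 h, 5 concentrations. 3) Linear interpolation between surrounding doses. 4) Unreached endpoint = highest concentration. The concentration for 50% growth inhibition is given as GI50. TGI marks complete inhibition of growth.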

Legend:
Test in all cases: NCI tumour cell line growth inhibition, 48 h
[1] = system: T-47D breast
[2] = system: HT29 colon
[3] = system: DU-145 prostate
[4] = system: NCI/ADR-RES ovarian
[5] = system: HS 578T breast
[6] = system: U251 CNS
[7] = system: NCI-H226 lung
[8] = system: OVCAR-8 ovarian
[9] = system: EKVX NSCLC
[10] = system: CCRF-CEM leukemia

Compound	GI50 [1]	TGI [1]	GI50 [2]	TGI [2]	GI50 [3]	TGI [3]	GI50 [4]	TGI [4]	GI50 [5]	TGI [5]	GI50 [6]	TGI [6]	GI50 [7]	TGI [7]	GI50 [8]	TGI [8]	GI50 [9]	TGI [9]	GI50 [10]	TGI [10]
COC(=O)c1cc2c([nH]c3ccccc32)c(-c2nc3cc(N(S(=O)(=O)c4ccc(C)cc4)S(=O)(=O)c4ccc(C)cc4)c(OC)cc3cc2CO)n1	> 100 µM	> 100 µM	> 100 µM	> 100 µM	> 100 µM	> 100 µM	> 100 µM	> 100 µM	30.6 µM	> 100 µM	59.5 µM	> 100 µM	> 100 µM	> 100 µM	> 100 µM	> 100 µM	> 100 µM	> 100 µM	10.3 µM	32 µM
CCN(CC)CCCC(C)NC(=S)N/N=C(\C)c1ccccn1 (stereo unspecified)	5.36 µM	> 100 µM	5.59 µM	> 100 µM	3.79 µM	> 100 µM	15.6 µM	> 100 µM	43.9 µM	> 100 µM	2.78 µM	> 100 µM	2.28 µM	21.2 µM	2.87 µM	> 100 µM	6.71 µM	> 100 µM	4.64 µM	> 100 µM
C/C=C\C(C)=C/C(C)C(=O)CC(O)CC1CC(=O)NC(=O)C1 (stereo unspecified)	–	> 100 µM	–	> 100 µM	–	> 100 µM	–	48.2 µM	–	62.5 µM	–	> 100 µM	–	> 100 µM	–	98.8 µM	–	> 100 µM	–	> 100 µM
Cc1nc2cc(NC(=O)CN3CCN(CCN4C(=O)c5cccc6cccc(c56)C4=O)CC3)ccc2s1	3.07 µM	17.9 µM	3.39 µM	19.6 µM	5.21 µM	17.1 µM	4.05 µM	29.5 µM	6.53 µM	52.5 µM	4.37 µM	18.9 µM	4.67 µM	73.9 µM	2.77 µM	19.4 µM	7.88 µM	> 100 µM	2.94 µM	95.9 µM
COc1ccc(/C(C)=C(\c2ccc(Cl)cc2)c2ccc(OCCN3CCCCC3)cc2)cc1F	4.25 µM	14.5 µM	0.65 µM	> 16.7 µM	4.64 µM	15 µM	3.53 µM	9.67 µM	2.83 µM	6.78 µM	2.68 µM	6.51 µM	4.35 µM	> 16.7 µM	4.11 µM	12.4 µM	4.78 µM	> 16.7 µM	3.98 µM	16.1 µM
COc1cc(C2C3=C(COC3=O)N(CCO)c3cc4c(cc32)CCC4)cc(OC)c1OC (stereo unspecified)	> 32.5 µM	> 32.5 µM	0.0975 µM	–	0.0787 µM	0.214 µM	0.709 µM	4.45 µM	0.104 µM	> 32.5 µM	0.125 µM	> 32.5 µM	0.417 µM	> 32.5 µM	0.118 µM	> 32.5 µM	1.12 µM	> 32.5 µM	0.13 µM	> 32.5 µM
Cn1c(N)cc(=O)nc1N	–	> 100 µM	–	> 100 µM	–	> 100 µM	–	> 100 µM	–	> 100 µM	–	> 100 µM	–	> 100 µM	–	> 100 µM	–	> 100 µM	–	> 100 µM
Nc1nc(N)c2nn(-c3ccc(C(=O)O)cc3)nc2n1	–	> 100 µM	–	> 100 µM	–	> 100 µM	–	> 100 µM	–	> 100 µM	–	> 100 µM	–	> 100 µM	–	> 100 µM	–	> 100 µM	–	> 100 µM
COc1ccc(C(=O)CC(Cl)=C(Cl)Cl)cc1	26.2 µM	61.9 µM	22 µM	83.5 µM	31.5 µM	> 100 µM	25.2 µM	59.4 µM	> 100 µM	> 100 µM	36 µM	> 100 µM	34.1 µM	85.7 µM	33.2 µM	> 100 µM	28.5 µM	> 100 µM	30.3 µM	> 100 µM
O=C(CN1C(=O)c2ccccc2C1=O)NC1(C(=O)O)CCCC1	–	> 100 µM	–	> 100 µM	–	> 100 µM	–	> 100 µM	–	> 100 µM	–	> 100 µM	–	> 100 µM	–	> 100 µM	–	> 100 µM	–	> 100 µM
Nc1cc2[nH]c(=O)c3cc(Cl)ccc3c2cc1Cl	–	> 100 µM	–	> 100 µM	–	39.1 µM	–	86.1 µM	–	> 100 µM	–	26.1 µM	–	28.1 µM	–	13.5 µM	–	> 100 µM	–	> 100 µM
CCCC1C2=C(C(=O)OC2=O)C2C(CC)CC3=C(C(=O)OC3=O)C12 (stereo unspecified)	–	> 100 µM	–	> 100 µM	–	> 100 µM	–	> 100 µM	–	> 100 µM	–	> 100 µM	–	> 100 µM	–	> 100 µM	–	> 100 µM	–	> 100 µM
O=C(NC(c1ccccc1)C(O)C(=O)OCc1ccc2c(c1)C(=O)c1ccccc1C2=O)c1ccccc1 (stereo unspecified)	–	34.9 µM	–	> 85.2 µM	–	> 100 µM	–	33.9 µM	–	> 100 µM	–	18.3 µM	–	18.7 µM	–	41 µM	–	> 83.1 µM	–	> 100 µM
COc1cc2c(c(OC)c1OC)-c1c(c3ccc([N+](=O)[O-])cc3c(=O)n1CCCN=[N+]=[N-])C2=O	34.8 µM	> 100 µM	94 µM	> 100 µM	71.3 µM	> 100 µM	45.3 µM	> 100 µM	12.2 µM	> 100 µM	8.36 µM	23.3 µM	28.4 µM	71.8 µM	13.6 µM	68.8 µM	> 100 µM	> 100 µM	> 100 µM	> 100 µM
COc1ccc(C2CC(c3ccc(OC)c(OC)c3)=NN2C(=O)c2cc(OC)c(OC)c(OC)c2)cc1 (stereo unspecified)	2.3 µM	> 100 µM	3.07 µM	> 100 µM	3.79 µM	> 100 µM	0.95 µM	6.02 µM	2.07 µM	> 100 µM	2.53 µM	> 100 µM	3.06 µM	> 100 µM	3.96 µM	> 100 µM	5.25 µM	> 100 µM	4.29 µM	> 100 µM
Cc1nn(-c2ccccc2)c2ncc3c(c12)C(=O)N(Cc1ccccc1)C3=O	4.86 µM	20.7 µM	> 100 µM	> 100 µM	72.2 µM	> 100 µM	4.46 µM	> 100 µM	2.98 µM	> 100 µM	3.12 µM	14.2 µM	3.46 µM	13 µM	5.14 µM	> 100 µM	5.64 µM	> 100 µM	1.99 µM	16.8 µM
COc1cc2c(cc1Nc1nc(Nc3ccsc3C(N)=O)c3cc[nH]c3n1)N(C(=O)CN(C)C)CCC2	3.87 µM	9.65 µM	< 0.0025 µM	0.681 µM	0.481 µM	1.64 µM	4.75 µM	> 25 µM	1.14 µM	5.42 µM	1.14 µM	12.8 µM	1.12 µM	7.18 µM	0.842 µM	> 11.2 µM	0.551 µM	6.35 µM	0.162 µM	9.66 µM
C[CH2][Ge]1([CH2]C)[CH2]CC2(CCN(CCCN(C)C)C2)C[CH2]1	1.65 µM	3.25 µM	0.4 µM and 2.24 µM	1.59 µM and 6.05 µM	2.48 µM and 3.09 µM	6.64 µM and 8.84 µM	1.83 µM and 5.51 µM	4.58 µM and 13.4 µM	1.57 µM	3.3 µM	1.73 µM and 5.49 µM	3.69 µM and 9.77 µM	2.24 µM and 17.3 µM	4.92 µM and 32.1 µM	1.7 µM and 1.25 µM	4.05 µM and 1.73 µM	1.7 µM and 2.33 µM	6.56 µM and 4.44 µM	0.709 µM and 1.4 µM	2.33 µM and 2.44 µM
C#Cc1cccc(NC(=O)Nc2cccc(NC(=O)CCl)c2)c1	32.1 µM	> 82.5 µM	17.8 µM	53.5 µM	> 82.5 µM	> 82.5 µM	20.1 µM	75.7 µM	21.2 µM	> 82.5 µM	16.4 µM	39.3 µM	21.6 µM	75.2 µM	23.1 µM	> 82.5 µM	> 82.5 µM	> 82.5 µM	10.9 µM	68.6 µM
C[As](C)SCC(COC(=O)c1ccccc1)OC(=O)c1ccccc1 (stereo unspecified)	0.0452 µM	3.84 µM	0.302 µM	2.26 µM	0.473 µM	4.17 µM	0.152 µM	0.367 µM	0.627 µM	4.45 µM	1.71 µM	6.67 µM	1.09 µM	3.75 µM	0.225 µM	0.667 µM	1.86 µM	10.7 µM	0.0305 µM	0.759 µM
Cn1c([N+](=O)[O-])cnc1/C=C1\Oc2ccc(Cl)cc2C1=O	4.07 µM	46.4 µM	0.254 µM	0.757 µM	0.402 µM	1.32 µM	0.534 µM	> 22.5 µM	1.83 µM	> 24.1 µM	1.16 µM	3.01 µM	1.64 µM	4.64 µM	0.33 µM	–	–	–	0.199 µM	0.823 µM
